Measurements taken from PMC6199744, “Development of Chemical Proteomics for the Folateome and Analysis of the Kinetoplastid Folateome” (ACS Infectious Diseases, 2018).
Like-named read-outs stand apart in the source and are kept apart here.

Columns and labels:
Type in all cases: binding
[1] = biological target: T1, HeLa cell extract proteins (Homo sapiens, UniProt P04279)
T1 construct: endogenous in cells; host or cells: HeLa cell extract
T1 sequence (P04279 24-462): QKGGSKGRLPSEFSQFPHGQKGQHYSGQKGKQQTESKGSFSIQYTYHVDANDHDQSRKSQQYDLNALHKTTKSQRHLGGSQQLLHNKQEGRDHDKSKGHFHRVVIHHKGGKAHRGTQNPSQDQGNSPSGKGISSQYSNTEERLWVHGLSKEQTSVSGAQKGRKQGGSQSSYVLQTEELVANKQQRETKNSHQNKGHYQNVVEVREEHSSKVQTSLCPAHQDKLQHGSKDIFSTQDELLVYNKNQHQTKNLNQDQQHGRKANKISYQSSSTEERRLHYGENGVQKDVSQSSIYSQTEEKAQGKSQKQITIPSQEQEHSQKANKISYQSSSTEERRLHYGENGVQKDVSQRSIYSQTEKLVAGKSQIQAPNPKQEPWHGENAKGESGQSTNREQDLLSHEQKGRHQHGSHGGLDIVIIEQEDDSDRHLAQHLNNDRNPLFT

[2] = biological target: T2, HeLa cell extract proteins (Homo sapiens, UniProt P19105)
T2 construct: endogenous in cells; host or cells: HeLa cell extract
T2 sequence (P19105 1-171): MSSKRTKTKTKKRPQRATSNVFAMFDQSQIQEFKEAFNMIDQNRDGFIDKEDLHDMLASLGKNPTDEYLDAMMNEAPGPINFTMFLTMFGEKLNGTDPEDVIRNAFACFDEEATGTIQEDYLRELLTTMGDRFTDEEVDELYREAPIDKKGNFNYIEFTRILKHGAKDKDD

[3] = biological target: T3, HeLa cell extract proteins (Homo sapiens, UniProt P60891)
T3 construct: endogenous in cells; host or cells: HeLa cell extract
T3 sequence (P60891 1-318): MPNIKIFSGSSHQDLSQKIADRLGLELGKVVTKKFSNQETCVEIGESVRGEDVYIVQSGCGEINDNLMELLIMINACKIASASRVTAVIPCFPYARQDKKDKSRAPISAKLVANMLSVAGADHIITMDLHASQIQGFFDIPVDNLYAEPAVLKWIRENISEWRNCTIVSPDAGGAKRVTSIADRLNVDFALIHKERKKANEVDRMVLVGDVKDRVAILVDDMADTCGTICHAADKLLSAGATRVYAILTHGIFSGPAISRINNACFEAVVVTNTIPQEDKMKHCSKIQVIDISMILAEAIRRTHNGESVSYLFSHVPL

[4] = biological target: T4, HeLa cell extract proteins (Homo sapiens, UniProt P68871)
T4 construct: endogenous in cells; host or cells: HeLa cell extract
T4 sequence (P68871 whole entry): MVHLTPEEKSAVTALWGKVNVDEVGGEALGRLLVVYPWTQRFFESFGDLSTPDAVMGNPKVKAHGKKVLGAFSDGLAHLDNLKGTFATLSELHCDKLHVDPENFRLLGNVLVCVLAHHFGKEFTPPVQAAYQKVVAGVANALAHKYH

[5] = biological target: T5, HeLa cell extract proteins (Homo sapiens, UniProt Q12904)
T5 construct: endogenous in cells; host or cells: HeLa cell extract
T5 sequence (Q12904 1-312): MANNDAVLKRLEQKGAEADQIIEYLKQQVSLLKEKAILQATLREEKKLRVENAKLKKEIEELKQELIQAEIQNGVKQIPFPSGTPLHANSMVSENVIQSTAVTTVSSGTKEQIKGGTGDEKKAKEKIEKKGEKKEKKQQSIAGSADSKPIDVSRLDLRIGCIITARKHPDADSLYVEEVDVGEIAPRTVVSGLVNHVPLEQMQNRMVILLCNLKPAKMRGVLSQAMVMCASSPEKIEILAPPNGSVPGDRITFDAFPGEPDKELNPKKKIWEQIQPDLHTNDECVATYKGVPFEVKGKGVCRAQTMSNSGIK

[6] = biological target: T6, HeLa cell extract proteins (Homo sapiens, UniProt Q9NYP7)
T6 construct: endogenous in cells; host or cells: HeLa cell extract
T6 sequence (Q9NYP7 1-299): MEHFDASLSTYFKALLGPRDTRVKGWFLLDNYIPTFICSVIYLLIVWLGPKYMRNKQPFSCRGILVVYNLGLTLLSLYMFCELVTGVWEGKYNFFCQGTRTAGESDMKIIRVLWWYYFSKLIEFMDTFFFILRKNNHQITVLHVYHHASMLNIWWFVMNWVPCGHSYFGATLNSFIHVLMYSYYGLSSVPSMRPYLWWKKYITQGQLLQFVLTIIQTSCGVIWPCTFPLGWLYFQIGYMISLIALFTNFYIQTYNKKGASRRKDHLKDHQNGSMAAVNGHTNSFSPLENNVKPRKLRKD

[7] = biological target: T7, HeLa cell extract proteins (Homo sapiens, UniProt Q9P2J5)
T7 construct: endogenous in cells; host or cells: HeLa cell extract
T7 sequence (Q9P2J5 whole entry): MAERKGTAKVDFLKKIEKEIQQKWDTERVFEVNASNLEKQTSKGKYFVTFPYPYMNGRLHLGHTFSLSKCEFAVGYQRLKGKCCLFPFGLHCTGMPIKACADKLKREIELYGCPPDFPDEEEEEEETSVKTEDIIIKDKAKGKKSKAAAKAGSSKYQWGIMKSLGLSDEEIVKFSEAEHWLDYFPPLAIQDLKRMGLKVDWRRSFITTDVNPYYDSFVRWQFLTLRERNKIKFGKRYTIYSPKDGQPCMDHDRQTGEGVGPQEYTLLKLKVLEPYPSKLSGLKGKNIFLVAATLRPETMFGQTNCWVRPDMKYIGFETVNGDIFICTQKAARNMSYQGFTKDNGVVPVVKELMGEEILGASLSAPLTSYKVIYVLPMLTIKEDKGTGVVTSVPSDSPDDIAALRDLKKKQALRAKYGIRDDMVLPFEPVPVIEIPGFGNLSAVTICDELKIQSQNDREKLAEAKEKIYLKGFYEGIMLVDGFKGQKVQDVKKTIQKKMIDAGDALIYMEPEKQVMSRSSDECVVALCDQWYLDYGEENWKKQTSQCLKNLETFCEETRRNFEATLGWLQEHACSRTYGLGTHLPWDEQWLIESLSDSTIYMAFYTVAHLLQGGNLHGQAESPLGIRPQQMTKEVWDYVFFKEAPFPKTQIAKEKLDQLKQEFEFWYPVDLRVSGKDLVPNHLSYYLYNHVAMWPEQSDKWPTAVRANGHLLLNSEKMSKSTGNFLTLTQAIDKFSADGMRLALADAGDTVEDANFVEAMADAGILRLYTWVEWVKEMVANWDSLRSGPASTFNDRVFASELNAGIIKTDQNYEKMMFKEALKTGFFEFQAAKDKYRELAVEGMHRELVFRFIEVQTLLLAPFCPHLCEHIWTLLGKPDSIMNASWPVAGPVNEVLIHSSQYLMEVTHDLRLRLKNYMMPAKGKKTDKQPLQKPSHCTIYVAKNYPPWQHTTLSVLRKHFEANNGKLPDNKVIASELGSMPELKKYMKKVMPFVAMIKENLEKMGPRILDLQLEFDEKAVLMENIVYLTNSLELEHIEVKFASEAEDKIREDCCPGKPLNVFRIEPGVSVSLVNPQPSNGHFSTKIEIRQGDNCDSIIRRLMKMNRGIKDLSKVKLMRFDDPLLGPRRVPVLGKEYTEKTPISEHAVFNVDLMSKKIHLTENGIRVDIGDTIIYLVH

[8] = biological target: T8, HeLa cell extract proteins (Homo sapiens, UniProt Q9Y6G9)
T8 construct: endogenous in cells; host or cells: HeLa cell extract
T8 sequence (Q9Y6G9 whole entry): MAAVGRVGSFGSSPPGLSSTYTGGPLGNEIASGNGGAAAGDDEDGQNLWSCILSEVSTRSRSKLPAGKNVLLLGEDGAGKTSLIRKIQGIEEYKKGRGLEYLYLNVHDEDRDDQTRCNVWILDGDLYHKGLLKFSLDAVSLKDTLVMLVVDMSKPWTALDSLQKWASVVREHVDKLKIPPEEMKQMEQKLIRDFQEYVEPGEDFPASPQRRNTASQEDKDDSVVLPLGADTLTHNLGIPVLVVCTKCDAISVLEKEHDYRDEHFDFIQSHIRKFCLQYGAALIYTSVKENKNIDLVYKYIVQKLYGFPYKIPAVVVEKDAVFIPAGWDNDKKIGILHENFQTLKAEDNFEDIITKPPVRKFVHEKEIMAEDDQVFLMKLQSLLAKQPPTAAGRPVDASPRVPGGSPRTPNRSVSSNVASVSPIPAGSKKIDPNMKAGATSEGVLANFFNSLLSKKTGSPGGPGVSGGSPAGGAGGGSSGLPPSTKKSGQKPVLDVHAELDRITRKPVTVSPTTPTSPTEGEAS

[9] = biological target: T9, HeLa cell extract proteins (Homo sapiens, UniProt P43358); settings: protein MAGEA4; HeLa
T9 construct: endogenous in cells; host or cells: HeLa cell extract
T9 sequence (P43358 1-317): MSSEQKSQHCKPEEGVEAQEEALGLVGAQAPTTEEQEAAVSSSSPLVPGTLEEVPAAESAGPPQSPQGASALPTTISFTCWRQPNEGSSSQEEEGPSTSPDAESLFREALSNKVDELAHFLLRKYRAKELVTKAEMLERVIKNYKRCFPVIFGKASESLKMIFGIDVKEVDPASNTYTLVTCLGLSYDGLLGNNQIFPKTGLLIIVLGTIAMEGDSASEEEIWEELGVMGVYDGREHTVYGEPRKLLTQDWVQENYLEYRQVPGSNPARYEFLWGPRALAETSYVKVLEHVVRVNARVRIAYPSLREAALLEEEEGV

[10] = biological target: T10, HeLa cell extract proteins (Homo sapiens, UniProt Q9Y266); settings: protein NUDC; HeLa
T10 construct: endogenous in cells; host or cells: HeLa cell extract
T10 sequence (Q9Y266 whole entry): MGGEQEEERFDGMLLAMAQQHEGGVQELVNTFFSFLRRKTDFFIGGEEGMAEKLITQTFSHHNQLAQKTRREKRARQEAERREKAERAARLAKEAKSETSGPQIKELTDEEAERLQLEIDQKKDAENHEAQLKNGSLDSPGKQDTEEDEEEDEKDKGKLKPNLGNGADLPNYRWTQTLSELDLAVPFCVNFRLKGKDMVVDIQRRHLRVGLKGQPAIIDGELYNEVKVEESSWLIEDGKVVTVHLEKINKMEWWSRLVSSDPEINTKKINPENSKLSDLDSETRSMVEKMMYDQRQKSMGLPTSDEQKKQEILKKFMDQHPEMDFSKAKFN

[11] = biological target: T11, HeLa cell extract proteins (Homo sapiens, UniProt Q9Y316); settings: HeLa; protein MEMO1
T11 construct: endogenous in cells; host or cells: HeLa cell extract
T11 sequence (Q9Y316 1-297): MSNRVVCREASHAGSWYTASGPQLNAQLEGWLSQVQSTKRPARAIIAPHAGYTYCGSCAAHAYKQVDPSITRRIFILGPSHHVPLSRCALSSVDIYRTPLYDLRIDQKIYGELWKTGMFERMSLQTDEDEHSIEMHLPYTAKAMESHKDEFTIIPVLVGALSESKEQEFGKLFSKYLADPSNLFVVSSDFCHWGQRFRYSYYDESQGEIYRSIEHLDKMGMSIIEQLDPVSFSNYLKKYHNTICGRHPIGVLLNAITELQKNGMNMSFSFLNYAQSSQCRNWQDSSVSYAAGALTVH

[12] = HeLa, protein MRCL3 (MYOSIN REGULATORY LIGHT CHAIN MRCL3 VARIANT)
[13] = HeLa, protein HBB (BETA-GLOBIN GENE FROM A T[…])

| SMILES | fold changes relative to vehicle control ([1]; protein SEMG1, HeLa) | fold changes relative to vehicle control [2, 12] | fold changes relative to vehicle control ([3]; HeLa, protein PRPS1) | fold changes relative to vehicle control [4, 13] | fold changes relative to vehicle control ([5]; HeLa, protein SCYE1) | fold changes relative to vehicle control ([6]; HeLa, protein ELOVL5) | fold changes relative to vehicle control ([7]; HeLa, protein LARS) | fold changes relative to vehicle control ([8]; HeLa, protein DYNC1LI1) | fold changes relative to vehicle control [9] | fold changes relative to vehicle control [10] | fold changes relative to vehicle control [11] | other results |
| --- | --- | --- | --- | --- | --- | --- | --- | --- | --- | --- | --- | --- |
| Nc1nc2c(c(=O)[nH]1)N(C=O)C(CNc1ccc(C(=O)N[C@@H](CCC(=O)O)C(=O)O)cc1)CN2 (some centres unmarked) [LEU, leucovorin] | 0.13 | 0.8 | 1.12 | 1.13 | 0.85 | 0.95 | 1.04 | 0.9 | – | – | – | – |
| Nc1nc2[nH]cc(CCc3ccc(C(=O)N[C@@H](CCC(=O)O)C(=O)O)cc3)c2c(=O)[nH]1 [PTX, pemetrexed] | – | – | – | – | – | – | – | – | – | – | – | fold changes relative to vehicle control [1]: 0.14; fold changes relative to vehicle control [2]: 0.9; fold changes relative to vehicle control [3]: 1.07; fold changes relative to vehicle control [4]: 0.94; fold changes relative to vehicle control [5]: 0.91; fold changes relative to vehicle control [6]: 0.9; fold changes relative to vehicle control [7]: 1.11; fold changes relative to vehicle control [8]: 0.81 |
| CCCCCCOc1ccc(Cc2cnc(N)nc2N)cc1 [compound 1] | – | – | – | – | – | – | – | – | 0.95 | 1.23 | 0.97 | – |
| CCCCCCOc1cccc(Cc2cnc(N)nc2N)c1 [compound 2] | – | – | – | – | – | – | – | – | 1.19 | 1.92 | 0.87 | – |
| Nc1nc2cccc(-c3ccccc3)c2n1Cc1ccc(Cl)c(Cl)c1 [compound 3] | – | – | – | – | – | – | – | – | 0.98 | 1.06 | 1 | – |
| NCCOCCOCC(=O)Nc1nc2ncc(CNc3ccc(C(=O)NC(CCC(=O)O)C(=O)O)cc3)nc2c(=O)[nH]1 (centres unmarked) [compound 6] | 0.16 | 1.43 | 1.08 | 0.99 | 0.99 | 0.98 | 1 | 0.9 | – | – | – | – |
| NCCCNc1ccc(C(=O)NC(CCC(=O)O)C(=O)O)cc1 (centres unmarked) [compound 7] | 0.09 | 0.93 | 0.9 | 0.87 | 0.86 | 1.02 | 1.13 | 0.88 | – | – | – | – |
